According to article PMC10672269, “Evaluation of Carbonic Anhydrase, Acetylcholinesterase, Butyrylcholinesterase, and α-Glycosidase Inhibition Effects and Antioxidant Activity of Baicalin Hydrate” (Life, 2023):
Where “and” joins values, the source holds several entries; their conditions need not be identical. Equal values may be shown once. Read-outs that look alike come from different tables or passages of the source.

Legend:
[1] = ABTS radical scavenging
Description: ABTS^•+ scavenging capacity of baicalin hydrate was measured according to a different work and was detected at 734 nm. ABTS^•+ was produced by the reaction of 2 mM ABTS in water with 2.45 mM potassium persulfate (K2S2O8), incubated in the dark at room temperature for five hours. Before usage, the ABTS^•+ solution was diluted to obtain an absorbance of 0.750 ± 0.025 at 734 nm with phosphate buffer (0.1 M, pH 7.4). Then, 1 mL of ABTS^•+ solution was added to 3 mL of baicalin hydrate in ethanol at different concentrations (10–30 µg/mL).
(§1) The IC50 values were determined using plots of activity (%) versus baicalin hydrate. Ki values and other inhibition factors were determined using Lineweaver–Burk graphs.

[2] = DMPD radical scavenging
Description: Baicalin hydrate was evaluated for its capacity to remove DMPD^•+ using the Fogliano technique. For this purpose, 0.5 mL of FeCl3 (50 mM) and 1.5 mL of DMPD solution were added to the buffer solution (pH 5.3, 0.1 M). Then, this mixture was added to 1 mL of different concentrations (10–30 μg/mL) of baicalin hydrate. Then, the total volume was adjusted to 4 mL using deionized water. Finally, 1 mL of DMPD radicals were added, and their absorbances were recorded at 505 nm.
as §1

[3] = Fe3+ reducing ability (potassium ferricyanide reduction); settings: at 30 μg/mL
Description: According to prior investigation, baicalin hydrate’s ability to reduce Fe^3+ was achieved. Also, according to previous works, the Fe^3+-reducing effect of baicalin hydrate was tested. Briefly, 0.75 mL of deionized water and different doses of baicalin hydrate (10–30 μg/mL) were combined with 1.25 mL sodium phosphate buffer (pH 6.6, 0.2 M) and 1.25 mL of K3[Fe(CN)6] (1%). After 30 min incubation at 30 °C, the reaction medium was acidified with 1 mL trichloroacetic acid (10%, TCA) and re-incubated in the dark for 30 min. Finally, 0.5 mL of FeCl3 (0.1%) was transferred to the solution. The absorbance values of baicalin hydrate and references were recorded at 700 nm. The increased absorbance of the reaction mixture reflects an increasing reduction ability.

[4] = DPPH radical scavenging
Description: The Blois technique was used to test the DPPH^• scavenging capacity of baicalin hydrate. Briefly, 0.25 mL of different concentrations of baicalin hydrate in ethanol (10–30 μg/mL) and 0.25 mL of DPPH radical solution (0.3 mM) in ethanol were combined with 1 mL ethanol in test tubes. The mixture was then incubated at 37 °C for 30 min. The DPPH radical scavenging activities of baicalin hydrate were measured at 517 nm.
as §1

[5] = Cu2+ reducing ability (cupric ions reducing); settings: at 30 μg/mL
Description: The technique of Apak et al. was utilized to assess the cupric ions (Cu^2+) reducing capacity of baicalin hydrate. After carrying out the required experimental procedures, the absorbances were detected at 450 nm using a spectrophotometer (Shimadzu, UV-1280, Kyoto, Japan). To do so, 0.2 mL CuCl2 solution (10 mM), 200 µL neocuproine solution (7.5 mM), and 200 µL CH3COONa buffer solution (1.0 M) were added to a test tube. The solution was mixed with different concentrations of baicalin hydrate (10–30 μg/mL). The total volume then reduced to 1.5 mL by adding distilled water and stored at room temperature. After 30 min incubation, the absorbances of the samples were measured at 450 nm. The increased absorbance of the reaction reflects increased reduction capacity.

[6] = cited from earlier work; for median inhibitory concentration (IC50): DPPH tests in a different investigation; for DPPH radical scavenging IC50: previous reports
[7] = biological target: T1, acetylcholinesterase (AChE) (Electrophorus electricus, UniProt O42275); test: Acetylcholinesterase inhibition (Ellman); format: biochemical, electric eel (Electrophorus electricus)
T1 construct: AChE was obtained from electric eel (Electrophorus electricus); from tissue
T1 sequence (O42275 24-633): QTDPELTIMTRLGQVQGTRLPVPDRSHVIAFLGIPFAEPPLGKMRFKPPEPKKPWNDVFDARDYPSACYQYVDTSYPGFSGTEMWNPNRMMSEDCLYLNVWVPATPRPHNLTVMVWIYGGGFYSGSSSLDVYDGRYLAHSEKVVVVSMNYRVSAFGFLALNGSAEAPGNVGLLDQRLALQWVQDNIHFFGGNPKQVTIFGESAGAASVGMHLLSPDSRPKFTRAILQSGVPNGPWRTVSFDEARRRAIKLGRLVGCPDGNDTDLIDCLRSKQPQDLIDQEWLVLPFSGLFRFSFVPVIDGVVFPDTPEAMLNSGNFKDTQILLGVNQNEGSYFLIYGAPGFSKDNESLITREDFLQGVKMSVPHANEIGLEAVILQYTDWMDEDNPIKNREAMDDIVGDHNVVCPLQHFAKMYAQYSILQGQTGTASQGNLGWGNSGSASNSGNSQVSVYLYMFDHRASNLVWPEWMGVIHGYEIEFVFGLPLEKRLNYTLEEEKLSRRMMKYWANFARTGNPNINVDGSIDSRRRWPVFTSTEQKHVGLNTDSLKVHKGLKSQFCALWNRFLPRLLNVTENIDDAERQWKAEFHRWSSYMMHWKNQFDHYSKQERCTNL

[8] = biological target: α-glycosidase; test: α-Glycosidase inhibition (p-NPG substrate); format: biochemical, Saccharomyces cerevisiae
Description: The inhibition effects of baicalin hydrate on α-glycosidase (from Saccharomyces cerevisiae) were assessed according to the procedure outlined by Tao et al.. p-Nitrophenyl-D-glucopyranoside (p-NPG) was used as a substrate for α-glycosidase. Briefly, 75 μL phosphate buffer (pH 7.4) was mixed with 5 μL of the sample and 20 μL α-glycosidase enzyme solution in a phosphate buffer (0.15 U/mL, pH 7.4). After preincubation, 50 μL of p-nitrophenyl-D-glycopyranoside (p-NPG) in a phosphate buffer (5 mM, pH 7.4) was transferred, and the solution was incubated at 37 °C. The absorbance of the samples was measured at 405 nm. The amount of enzyme that catalyzed […] of substrate per minute (pH 7.4) was one α-glycosidase unit.
as §1

[9] = biological target: T2, hCA II isoenzyme (Homo sapiens, UniProt P00918); test: Human carbonic anhydrase II inhibition (esterase activity); format: biochemical
T2 construct: hCA II isoenzyme was purified from fresh human erythrocytes; from tissue
Description: hCA II isoenzyme was purified from fresh human erythrocytes. The erythrocytes were spun at 10,000× g for 30 min. The serum was then separated, and the pH was adjusted to 8.7 using solid Tris. Sepharose-4B-L-Tirozyne sulfanilamide affinity column chromatography was used to purify the CA II isoenzyme. […] Sodium acetate/NaClO4 (0.5 M, pH 5.6, 25 °C) was then used to elute the hCA II isozyme. The Bradford technique was used to measure the protein quantity throughout the purification process. Bovine serum albumin was employed as a reference protein. SDS-PAGE was used to monitor the purity of the hCA II isoform. Esterase activity was performed throughout hCA II’s purification and inhibition processes.
as §1

[10] = biological target: T3, butyrylcholinesterase (BChE) (Equus caballus, UniProt P81908); test: biochemical; set-up: species or system equine
T3 construct: BChE was purified from equine serum; from tissue; host or cells: equine serum
T3 sequence (P81908 whole entry): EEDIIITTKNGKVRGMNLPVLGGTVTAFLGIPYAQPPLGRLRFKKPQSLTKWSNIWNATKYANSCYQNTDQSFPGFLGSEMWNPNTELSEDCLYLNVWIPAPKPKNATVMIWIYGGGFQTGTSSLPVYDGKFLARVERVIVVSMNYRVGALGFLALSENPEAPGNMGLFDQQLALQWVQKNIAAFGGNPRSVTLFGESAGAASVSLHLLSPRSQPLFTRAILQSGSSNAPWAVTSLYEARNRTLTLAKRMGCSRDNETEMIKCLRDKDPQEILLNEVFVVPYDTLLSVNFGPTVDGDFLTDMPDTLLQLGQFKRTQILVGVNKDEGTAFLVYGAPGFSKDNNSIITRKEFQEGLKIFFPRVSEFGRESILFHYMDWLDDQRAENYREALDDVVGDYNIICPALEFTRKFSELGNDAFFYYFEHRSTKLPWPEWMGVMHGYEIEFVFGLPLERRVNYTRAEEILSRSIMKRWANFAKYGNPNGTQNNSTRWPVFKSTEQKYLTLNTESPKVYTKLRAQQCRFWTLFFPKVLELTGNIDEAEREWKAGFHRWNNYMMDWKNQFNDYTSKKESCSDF

[11] = set-up: method as in PMID 31832335, PMID 16243424, PMID 36297576, doi:10.1016/j.fbio.2022.101557, PMID 37693735; settings: other existing studies; cited from earlier work
[12] = cited from earlier work
[13] = set-up: method as in PMID 31832335, PMID 16243424, PMID 24980540, PMID 36297576, doi:10.1016/j.arabjc.2009.12.008; settings: at similar concentration; cited from earlier work
[14] = tested on: AChE; settings: cited from earlier work; for Ki: read-out: Ki towards AChE
[15] = set-up: method as in PMID 31832335, PMID 36144638, PMID 37693735, PMID 21554120, PMID 36297576; settings: at the same concentration; cited from earlier work

## COc1ccc(O)c(C(C)(C)C)c1 [BHA, butylated hydroxyanisole]
[1]
  ABTS•+ scavenging IC50: 5.07 µg/mL
[2]
  DMPD•+ scavenging IC50: 11.99 µg/mL
[3]
  Fe^3+ reducing, absorbance λ (700 nm): 2.347 ± 0.046 and 2.347
[4]
  DPPH• scavenging IC50: 10.10 µg/mL
[5]
  Cu^2+ reducing, absorbance λ (450 nm): 2.216 ± 0.059 and 2.216

## Cc1cc(C(C)(C)C)c(O)c(C(C)(C)C)c1 [BHT, butylated hydroxytoluene]
[1]
  ABTS•+ scavenging IC50: 6.99 µg/mL
[2]
  DMPD•+ scavenging IC50: 8.72 µg/mL
[3]
  Fe^3+ reducing, absorbance λ (700 nm): 0.952 ± 0.023 and 0.952
[4]
  DPPH• scavenging IC50: 25.95 µg/mL
[6]
  median inhibitory concentration (IC50): 21.7 µg/mL
[5]
  Cu^2+ reducing, absorbance λ (450 nm): 2.044 ± 0.041 and 2.044

## O=C(O)[C@H]1O[C@@H](Oc2cc3oc(-c4ccccc4)cc(=O)c3c(O)c2O)[C@H](O)[C@@H](O)[C@@H]1O [Baicalin hydrate, baicalin hydrate]
[1]
  ABTS•+ scavenging IC50: 38.37 µg/mL
[2]
  DMPD•+ scavenging IC50: 90.91 µg/mL
[7]
  IC50: 14.7 nM
  Ki: 10 ± 2.86 nM
  Selectivity index (Ki for AChE/Ki BChE): 2.86
[3]
  Fe^3+ reducing, absorbance λ (700 nm): 1.249
[3]; listed as baicalin hydrate
  Fe^3+ reducing, absorbance λ (700 nm): 1.249 ± 0.014
[4]
  DPPH• scavenging IC50: 13.40 µg/mL
[8]
  IC50: 24.6 nM
[8]; n: 3, Lineweaver–Burk, read-out: Ki α-Gly
  Ki: 27 ± 9.91 nM
[9]
  IC50: 31.1 nM
  Ki: 19.3 ± 1.79 nM
[10]
  IC50: 12.3 nM
[10]; n: 3, Lineweaver–Burk
  Ki: 3.5 ± 0.68 nM
[6]
  median inhibitory concentration (IC50): 17.0 µg/mL
[5]
  Cu^2+ reducing, absorbance λ (450 nm): 0.344
[5]; listed as baicalin hydrate
  Cu^2+ reducing, absorbance λ (450 nm): 0.344 ± 0.033

## O=C(/C=C/c1ccc(O)c(O)c1)OCCc1ccccc1 [CAPE, caffeic acid phenethyl ester]
[11]
  DMPD•+ scavenging IC50: 26.70 µg/mL
[6]
  DPPH radical scavenging IC50: 3.30 µg/mL
[12]
  ABTS•+ scavenging IC50: 9.80 µg/mL
[13]
  Fe^3+ reducing absorbance: 2.509

## Cc1c(C)c2c(c(C)c1O)CCC(C)(C(=O)O)O2 (centres unmarked) [Trolox]
[1]
  ABTS•+ scavenging IC50: 6.16 µg/mL
[2]
  DMPD•+ scavenging IC50: 4.33 µg/mL
[3]
  Fe^3+ reducing, absorbance λ (700 nm): 2.119 ± 0.001 and 2.119
[4]
  DPPH• scavenging IC50: 7.059 µg/mL
[5]
  Cu^2+ reducing, absorbance λ (450 nm): 1.548 ± 0.024 and 1.548

## O=C1O[C@H]([C@@H](O)CO)C(O)=C1O [ascorbic acid, reference compound]
[6]
  median inhibitory concentration (IC50): 19.6 µg/mL

## O=C(O)[C@H]1O[C@@H](Oc2cc3oc(-c4ccccc4)cc(=O)c3c(O)c2O)[C@H](O)[C@@H](O)[C@@H]1O [baicalin]
[14]; a different study, read-out: 50% inhibition of AChE activity (IC50)
  IC50: 124 µM
[6]; read-out: DPPH radical IC50
  IC50: 64.9 µM

## O=C(O)/C=C/c1ccc(O)c(O)c1 [caffeic acid]
[13]
  Fe^3+ reducing absorbance: 2.769

## O=c1oc2cc(O)ccc2c2oc3cc(O)ccc3c12 [coumestrol]
[11]
  DMPD•+ scavenging IC50: 12.81 µg/mL
[15]
  Cu^2+ reduction absorbance: 0.780
[14]
  Ki: 21.4 nM
[6]
  DPPH radical scavenging IC50: 25.95 µg/mL
[12]
  ABTS•+ scavenging IC50: 12.24 µg/mL
[13]
  Fe^3+ reducing absorbance: 0.739

## C=CCc1ccc(O)c(OC)c1 [eugenol]
[11]
  DMPD•+ scavenging IC50: 10.04 µg/mL
[15]
  Cu^2+ reduction absorbance: 0.762
[6]
  DPPH radical scavenging IC50: 16.06 µg/mL
[12]
  ABTS•+ scavenging IC50: 7.84 µg/mL

## COc1ccc2c(c1O)-c1c(O)c(OC)cc3c1[C@H](C2)[N+](C)(C)CC3 [magnofluorine]
[11]
  DMPD•+ scavenging IC50: 15.16 µg/mL
[15]
  Cu^2+ reduction absorbance: 0.468
[6]
  DPPH radical scavenging IC50: 10.58 µg/mL
[12]
  ABTS•+ scavenging IC50: 27.61 µg/mL
[13]
  Fe^3+ reducing absorbance: 0.967

## CCCCCc1cc(O)cc(O)c1 [olivetol]
[11]
  DMPD•+ scavenging IC50: 19.25 µg/mL
[15]
  Cu^2+ reduction absorbance: 1.314
[6]
  DPPH radical scavenging IC50: 17.77 µg/mL
[12]
  ABTS•+ scavenging IC50: 1.94 µg/mL

## O=c1c(O)c(-c2ccc(O[C@@H]3O[C@H](CO)[C@@H](O)[C@H](O)[C@H]3O)c(O)c2)oc2cc(O)cc(O)c12 [spiraeoside]
[11]
  DMPD•+ scavenging IC50: 8.15 µg/mL
[15]
  Cu^2+ reduction absorbance: 0.519
[14]
  Ki: 3.4 nM
[6]
  DPPH radical scavenging IC50: 28.51 µg/mL
[12]
  ABTS•+ scavenging IC50: 7.48 µg/mL
[13]
  Fe^3+ reducing absorbance: 1.012

## O=C1c2c(O)cc(O)cc2OC(c2ccc(O)c(O)c2)C1O (centres unmarked) [taxifolin]
[11]
  DMPD•+ scavenging IC50: 173.25 µg/mL
[15]
  Cu^2+ reduction absorbance: 0.750
[14]
  Ki: 16.7 nM
[6]
  DPPH radical scavenging IC50: 77.00 µg/mL
[12]
  ABTS•+ scavenging IC50: 0.83 µg/mL

## O=c1[nH]c(=O)c2[nH]c(=O)[nH]c2[nH]1 [uric acid]
[13]
  Fe^3+ reducing absorbance: 0.432

## CC(=O)c1c(O)c(C)c(O)c2c1OC1=CC(=O)C(C(C)=O)C(=O)C12C (centres unmarked) [usnic acid]
[11]
  DMPD•+ scavenging IC50: 33.00 µg/mL
[15]
  Cu^2+ reduction absorbance: 0.277
[6]
  DPPH radical scavenging IC50: 49.50 µg/mL
[12]
  ABTS•+ scavenging IC50: 10.4 µg/mL
[13]
  Fe^3+ reducing absorbance: 0.278

## Cc1c(C)c2c(c(C)c1O)CC[C@@](C)(CCC[C@H](C)CCC[C@H](C)CCCC(C)C)O2 [α-Tocopherol]
[1]
  ABTS•+ scavenging IC50: 8.37 µg/mL
[2]
  DMPD•+ scavenging IC50: 7.11 µg/mL
[3]
  Fe^3+ reducing, absorbance λ (700 nm): 0.957 ± 0.018 and 0.957
[4]
  DPPH• scavenging IC50: 11.31 µg/mL
[5]
  Cu^2+ reducing, absorbance λ (450 nm): 0.816 ± 0.041 and 0.816

## L-Adrenaline [reference compound]
[11]
  DMPD•+ scavenging IC50: 15.6 µg/mL
[6]
  DPPH radical scavenging IC50: 30.6 µg/mL
[12]
  ABTS•+ scavenging IC50: 6.93 µg/mL

## tannic acid
[13]
  Fe^3+ reducing absorbance: 2.428
